Assay results from publication PMC2959089, “The intriguing Cyclophilin A-HIV-1 Vpr interaction: prolyl cis/trans isomerisation catalysis and specific binding” (BMC Structural Biology, 2010).
No end group written: not given here.

Legend:
[1] = molecular target: T1, CypA (Homo sapiens, UniProt P62937); assay: biochemical; type: binding; conditions: for kon: pH 7.4, read-out: ka1 (association rate constant), two state reaction model; for koff: pH 7.4, read-out: kd1 (dissociation rate constant), two state reaction model
T1 construct: made in house; host or cells: E. coli BL21(DE3)
T1 sequence (P62937 whole entry): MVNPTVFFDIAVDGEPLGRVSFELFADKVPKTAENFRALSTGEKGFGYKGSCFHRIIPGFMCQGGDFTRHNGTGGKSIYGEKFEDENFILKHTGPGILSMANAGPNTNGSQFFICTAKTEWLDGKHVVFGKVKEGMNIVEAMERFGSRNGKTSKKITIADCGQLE
Procedure: The two-state binding model, also called the conformational change model, is based on a 1:1 binding of an analyte to the immobilized ligand followed by a conformational change in the complex. This model should be regarded as indicative, rather than as direct evidence, for a conformational change upon binding. […] From the two-state binding model the association rate (ka1), dissociation rate (kd1), forward rate (ka2) and backward rate (kd2) constants were calculated, and subsequently the magnitude of the dissociation constants (KD) could be calculated ([…] (Table 1).
(§1) SPR measurements were performed at 25°C on a Biacore T100 instrument (Biacore AB, Uppsala, Sweden) equipped with a CM5 research-grade sensor chip. CypA was immobilized in FC 2 and FC 4 to 180 and 918 RU (response units) respectively, using standard amine-coupling chemistry in two flow cells. FC 1 and FC 3 were treated according to FC 2 and FC 4 except for CypA immobilisation and functioned as reference cells. The synthetic Vpr peptides sVpr^1-20, sVpr^21-40, sVpr^25-40, sVpr^30-40, sVpr^32-38 and sVpr^33-37 were dissolved at four concentrations ranging from 50 to 400 μM in the running buffer (HBS-P buffer pH 7.4). […] The samples were injected over the flow cells at a flow rate of 30 μl/min. Data were collected at 2.5 Hz during the 60 s association and 120 s dissociation phase, and were automatically corrected for bulk buffer effects and unspecific binding of Vpr peptides to the chip matrix.
Affinity, association and dissociation rate constants were obtained from sensograms by the Biacore T100 evaluation software version 2.0.1 in accordance with the global curve fit model. Sensorgram data for the four different concentrations were fitted to several binding models including 1:1 (Langmuir) binding model (A+B ↔ AB), two-state reaction (conformational change) model (A+B ↔ AB ↔ AB*) and heterogeneous ligand model (interaction one: A+B1 ↔ AB1; interaction two: A+B2 ↔ AB2). Kinetic constants were calculated for the best fitted model.

[2] = Solubility of sVpr peptides in aqueous buffer (observation during SPR sample preparation); type: physicochemical; conditions: for Solubility in SPR running buffer: HBS-P buffer pH 7.4, dissolved at 25-200 μM instead of 50-400 μM
Procedure: as §1

[3] = tested on: HIV; conditions: specific inhibitors of the prolyl cis/trans isomerase activity of CypA; cited from earlier work
Description: The interaction of HIV-1 Vpr with CypA is known to occur in vitro and in vivo [9-11]. […] Nonetheless, spe ...

[4] = molecular target: T1, CypA; assay: 2D 1H NOESY/ROESY NMR exchange spectroscopy of CypA prolyl cis/trans isomerase activity on sVpr peptides and its inhibition by cyclosporine A; type: biochemical; conditions: excess cyclosporine A (0.1 mg in 5 μl DMSO-d6) added after CypA
Procedure: After acquisition of 1 D ^1H and 2D ^1H TOCSY, NOESY and ROESY NMR spectra of pure sVpr^1-20 and sVpr^21-40, 50-100 μl 0.11 mM CypA dissolved in aqueous Tris buffer at pH 7 was added to the individual peptide solutions, followed by acquisition of identical series of NMR spectra (1 D ^1H and 2D ^1H TOCSY, NOESY and ROESY) to those of the pure peptides. Exchange peaks occurring in the spectra after addition of CypA were identified by supposition of analogous NOESY and/or ROESY spectra prior to and after addition of CypA using Bruker Topspin 1.3 software.
The catalytic prolyl cis/trans isomerase interactions of CypA with sVpr^1-20 and sVpr^21-40 was inhibited by addition of excessive amounts of cyclosporine A dissolved in 5 μl deuterated dimethylsulfoxide (DMSO-d6).

Work on `CC[C@H](C)[C@H](NC(=O)[C@H](CCCNC(=N)N)NC(=O)[C@@H]1CCCN1C(=O)[C@H](Cc1ccccc1)NC(=O)[C@H](Cc1c[nH]cn1)NC(=O)[C@H](CCCNC(=N)N)NC(=O)[C@@H](NC(=O)[C@H](C)NC(=O)[C@H](CCC(=O)O)NC(=O)[C@H](CO)NC(=O)[C@H](CCCCN)NC(=O)[C@H](CC(C)C)NC(=O)[C@@H](N)CCC(=O)O)C(C)C)C(=O)N[C@@H](Cc1c[nH]c2ccccc12)C(=O)N[C@@H](CC(C)C)C(=O)N[C@@H](Cc1c[nH]cn1)C(=O)O` [sVpr^25-40] yielded a kon [1] of 2000 M⁻¹ s⁻¹ and a koff [1] of 0.942 s⁻¹.

`CC[C@H](C)[C@H](NC(=O)[C@H](CCCNC(=N)N)NC(=O)[C@@H]1CCCN1C(=O)[C@H](Cc1ccccc1)NC(=O)[C@H](Cc1c[nH]cn1)NC(=O)[C@H](CCCNC(=N)N)NC(=O)[C@@H](NC(=O)[C@H](C)NC(=O)[C@H](CCC(=O)O)NC(=O)[C@H](CO)NC(=O)[C@H](CCCCN)NC(=O)[C@H](CC(C)C)NC(=O)[C@H](CCC(=O)O)NC(=O)[C@H](CCC(=O)O)NC(=O)[C@H](CC(C)C)NC(=O)[C@H](CC(C)C)NC(=O)[C@@H](N)CCC(=O)O)C(C)C)C(=O)N[C@@H](Cc1c[nH]c2ccccc12)C(=O)N[C@@H](CC(C)C)C(=O)N[C@@H](Cc1c[nH]cn1)C(=O)O` [sVpr^21-40] gave a kon [1] of 466 M⁻¹ s⁻¹ and a koff [1] of 0.164 s⁻¹.

`CC[C@H](C)[C@H](NC(=O)[C@H](CCCNC(=N)N)NC(=O)[C@@H]1CCCN1C(=O)[C@H](Cc1ccccc1)NC(=O)[C@H](Cc1c[nH]cn1)NC(=O)[C@H](CCCNC(=N)N)NC(=O)[C@@H](NC(=O)[C@H](C)NC(=O)[C@H](CCC(=O)O)NC(=O)[C@H](CO)NC(=O)[C@H](CCCCN)NC(=O)[C@H](CC(C)C)NC(=O)[C@H](CCC(=O)O)NC(=O)[C@H](CCC(=O)O)NC(=O)[C@H](CC(C)C)NC(=O)[C@H](CC(C)C)NC(=O)[C@H](CCC(=O)O)NC(=O)[C@H](CC(C)C)NC(=O)[C@@H](NC(=O)[C@@H](NC(=O)[C@H](Cc1c[nH]c2ccccc12)NC(=O)[C@H](CCC(=O)O)NC(=O)[C@H](CC(N)=O)NC(=O)[C@H](Cc1ccc(O)cc1)NC(=O)[C@@H]1CCCN1C(=O)[C@H](CCC(=O)O)NC(=O)[C@H](CCCNC(=N)N)NC(=O)[C@H](CCC(N)=O)NC(=O)[C@@H]1CCCN1C(=O)CNC(=O)[C@H](CCC(N)=O)NC(=O)[C@H](CC(=O)O)NC(=O)[C@H](CCC(=O)O)NC(=O)[C@@H]1CCCN1C(=O)[C@H](C)NC(=O)[C@H](CCC(N)=O)NC(=O)[C@H](CCC(=O)O)NC(=O)[C@@H](N)CCSC)[C@@H](C)O)[C@@H](C)O)C(C)C)C(=O)N[C@@H](Cc1c[nH]c2ccccc12)C(=O)N[C@@H](CC(C)C)C(=O)N[C@@H](Cc1c[nH]cn1)C(=O)O` [sVpr^1-40] showed a Kd [1] of 284 µM, a kon [1] of 752 M⁻¹ s⁻¹ and a koff [1] of 0.37 s⁻¹. The “Solubility in SPR running buffer” value [2] was “restricted solubility”.

For cyclosporine A, the “Inhibition of HIV replication” value [3] is given as “inhibit HIV replication”, the “Inhibition of CypA prolyl cis/trans isomerase activity (exchange crosspeaks after addition of inhibitor)” value ([4]; substrate sVpr1-20) is given as “disappearance of the prolyl cis/trans exchange crosspeaks” and the “Inhibition of CypA prolyl cis/trans isomerase activity (exchange crosspeaks after addition of inhibitor)” value ([4]; substrate sVpr21-40) is given as “prolyl cis/trans exchange crosspeaks disappeared”.

HFPRI [sVpr^33-37] showed a kon [1] of 120 M⁻¹ s⁻¹ and a koff [1] of 0.66 s⁻¹.

Work on `CC[C@H](C)[C@H](NC(=O)[C@H](CCCNC(=N)N)NC(=O)[C@@H]1CCCN1C(=O)[C@H](Cc1ccccc1)NC(=O)[C@H](Cc1c[nH]cn1)NC(=O)[C@H](CCCNC(=N)N)NC(=O)[C@@H](NC(=O)[C@H](C)N)C(C)C)C(=O)N[C@@H](Cc1c[nH]c2ccccc12)C(=O)N[C@@H](CC(C)C)C(=O)N[C@@H](Cc1c[nH]cn1)C(=O)O` [sVpr^30-40] yielded a kon [1] of 2470 M⁻¹ s⁻¹ and a koff [1] of 0.527 s⁻¹.

Work on RHFPRIW [sVpr^32-38] yielded a kon [1] of 924 M⁻¹ s⁻¹ and a koff [1] of 0.67 s⁻¹.

With `CC[C@H](C)[C@H](NC(=O)[C@H](CCCNC(=N)N)NC(=O)[C@@H]1CCCN1C(=O)[C@H](Cc1ccccc1)NC(=O)[C@H](Cc1c[nH]cn1)NC(=O)[C@H](CCCNC(=N)N)NC(=O)[C@@H](NC(=O)[C@H](C)NC(=O)[C@H](CCC(=O)O)NC(=O)[C@H](CO)NC(=O)[C@H](CCCCN)NC(=O)[C@H](CC(C)C)NC(=O)[C@H](CCC(=O)O)NC(=O)[C@H](CCC(=O)O)NC(=O)[C@H](CC(C)C)NC(=O)[C@H](CC(C)C)NC(=O)[C@H](CCC(=O)O)NC(=O)[C@H](CC(C)C)NC(=O)[C@@H](NC(=O)[C@@H](NC(=O)[C@H](Cc1c[nH]c2ccccc12)NC(=O)[C@H](CCC(=O)O)NC(=O)[C@H](CC(N)=O)NC(=O)[C@H](Cc1ccc(O)cc1)NC(=O)[C@H](CC(N)=O)NC(=O)[C@H](CCC(=O)O)NC(=O)[C@H](CCCNC(=N)N)NC(=O)[C@H](CCC(N)=O)NC(=O)[C@H](CC(N)=O)NC(=O)CNC(=O)[C@H](CCC(N)=O)NC(=O)[C@H](CC(=O)O)NC(=O)[C@H](CCC(=O)O)NC(=O)[C@H](CC(N)=O)NC(=O)[C@H](C)NC(=O)[C@H](CCC(N)=O)NC(=O)[C@H](CCC(=O)O)NC(=O)[C@@H](N)CCSC)[C@@H](C)O)[C@@H](C)O)C(C)C)C(=O)N[C@@H](Cc1c[nH]c2ccccc12)C(=O)N[C@@H](CC(C)C)C(=O)N[C@@H](Cc1c[nH]cn1)C(=O)O` [sVpr^1-40 P5,10,14 N] the kon [1] was 46 M⁻¹ s⁻¹, the koff [1] was 0.56 s⁻¹ and the “Solubility in SPR running buffer” value [2] was “restricted solubility”. The “Solubility in aqueous buffer solution” value ([2]; aqueous buffer solution at pH 7, offered as possible reason for unreliable KD) was “relatively poor solubility”.
